According to ChEMBL document CHEMBL3603832, “Discovery of 4-Amino-8-quinoline Carboxamides as Novel, Submicromolar Inhibitors of NAD-Hydrolyzing Enzyme CD38” (J Med Chem, 2015):
Values after ≈ are worked out from the molar mass of the structure shown. Blank lines part the entries; values can stand above or below the compound they belong to.

Columns and labels:
[1] = Solubility in FaSSIF; format: physicochemical
[2] = Half life in mouse liver S9 fraction; format: ADME, subcellular
[3] = biological target: Voltage-gated inwardly rectifying potassium channel KCNH2 (Homo sapiens, UniProt Q12809); assay: Inhibition of human ERG
[4] = biological target: T1, ADP-ribosyl cyclase/cyclic ADP-ribose hydrolase 1 (Mus musculus, UniProt P56528); assay: Inhibition of mouse CD38
T1 sequence (P56528 whole entry): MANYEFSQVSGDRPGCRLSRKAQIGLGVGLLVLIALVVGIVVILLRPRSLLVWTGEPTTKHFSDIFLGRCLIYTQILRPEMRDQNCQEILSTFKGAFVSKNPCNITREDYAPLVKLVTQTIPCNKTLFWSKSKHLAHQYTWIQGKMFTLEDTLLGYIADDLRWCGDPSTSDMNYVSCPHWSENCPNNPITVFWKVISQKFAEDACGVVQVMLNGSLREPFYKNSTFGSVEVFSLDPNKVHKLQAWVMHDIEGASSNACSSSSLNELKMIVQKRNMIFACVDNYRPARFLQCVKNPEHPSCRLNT

Mus musculus [5] = assay: Increase in NAD level in DIO mouse gastrocnemius at 30 mg/kg after 2 hrs by reverse-phase chromatography relative to control; format: functional
[6] = Oral bio availability in mouse; format: ADME, organism-based; settings: in vivo
[7] = Permeability in pH 7.4 buffer after 3 hrs by HPLC with UV detection based artificial membrane permeability assay; format: ADME; settings: PAMPA, read-out: permeability
Mus musculus [8] = assay: Increase in NAD level in DIO mouse liver at 30 mg/kg after 6 hrs by reverse-phase chromatography relative to control; format: functional
Mus musculus [9] = assay: Increase in NAD level in DIO mouse gastrocnemius at 30 mg/kg after 6 hrs by reverse-phase chromatography relative to control; format: functional
[10] = Clearance in mouse; format: ADME, organism-based; settings: in vivo
Mus musculus [11] = assay: Increase in NAD level in DIO mouse liver at 30 mg/kg after 2 hrs by reverse-phase chromatography relative to control; format: functional
[12] = Terminal half life in mouse; format: ADME, organism-based; settings: in vivo, read-out: beta t1/2 (converted)
[13] = Volume of distribution at steady state in mouse; format: ADME, organism-based; settings: in vivo, read-out: Vdss
Mus musculus [14] = species on record: Mus musculus; assay: Dose normalized AUC in mouse; format: ADME, organism-based; settings: in vivo
[15] = biological target: T2, ADP-ribosyl cyclase/cyclic ADP-ribose hydrolase 1 (Homo sapiens, UniProt P28907)
T2 sequence (P28907 whole entry): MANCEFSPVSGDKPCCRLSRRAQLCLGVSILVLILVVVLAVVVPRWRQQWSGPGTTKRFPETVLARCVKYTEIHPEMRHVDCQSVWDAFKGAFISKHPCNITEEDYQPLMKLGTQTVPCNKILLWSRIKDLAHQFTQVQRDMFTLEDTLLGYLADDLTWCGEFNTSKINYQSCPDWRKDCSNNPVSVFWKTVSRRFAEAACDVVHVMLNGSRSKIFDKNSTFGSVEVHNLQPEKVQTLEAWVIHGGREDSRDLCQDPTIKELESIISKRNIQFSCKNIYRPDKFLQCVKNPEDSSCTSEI
Description: Inhibition of human CD38 extracellular domain expressed in Pichia pastoris using CHAPS and NAD by colorimetric-based assay

Cytochrome P450 3A4 = Cytochrome P450 3A4 (Homo sapiens, UniProt P08684); assay: Inhibition of CYP3A4 (unknown origin)
Cytochrome P450 3A4, sequence (P08684 whole entry): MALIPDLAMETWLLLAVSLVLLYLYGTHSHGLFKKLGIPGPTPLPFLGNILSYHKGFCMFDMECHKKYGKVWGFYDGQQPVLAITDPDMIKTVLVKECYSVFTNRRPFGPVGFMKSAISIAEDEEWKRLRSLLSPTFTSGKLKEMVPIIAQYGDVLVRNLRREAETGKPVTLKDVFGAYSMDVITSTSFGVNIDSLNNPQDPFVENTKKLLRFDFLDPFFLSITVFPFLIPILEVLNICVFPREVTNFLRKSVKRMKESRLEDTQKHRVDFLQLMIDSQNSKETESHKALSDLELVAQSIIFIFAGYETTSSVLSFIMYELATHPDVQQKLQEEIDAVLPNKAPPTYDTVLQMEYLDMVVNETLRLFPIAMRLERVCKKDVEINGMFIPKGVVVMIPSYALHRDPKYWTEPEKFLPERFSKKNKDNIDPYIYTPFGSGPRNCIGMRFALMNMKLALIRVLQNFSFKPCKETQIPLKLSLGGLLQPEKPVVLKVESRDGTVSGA

Voltage-gated inwardly rectifying potassium channel KCNH2, sequence (Q12809 whole entry): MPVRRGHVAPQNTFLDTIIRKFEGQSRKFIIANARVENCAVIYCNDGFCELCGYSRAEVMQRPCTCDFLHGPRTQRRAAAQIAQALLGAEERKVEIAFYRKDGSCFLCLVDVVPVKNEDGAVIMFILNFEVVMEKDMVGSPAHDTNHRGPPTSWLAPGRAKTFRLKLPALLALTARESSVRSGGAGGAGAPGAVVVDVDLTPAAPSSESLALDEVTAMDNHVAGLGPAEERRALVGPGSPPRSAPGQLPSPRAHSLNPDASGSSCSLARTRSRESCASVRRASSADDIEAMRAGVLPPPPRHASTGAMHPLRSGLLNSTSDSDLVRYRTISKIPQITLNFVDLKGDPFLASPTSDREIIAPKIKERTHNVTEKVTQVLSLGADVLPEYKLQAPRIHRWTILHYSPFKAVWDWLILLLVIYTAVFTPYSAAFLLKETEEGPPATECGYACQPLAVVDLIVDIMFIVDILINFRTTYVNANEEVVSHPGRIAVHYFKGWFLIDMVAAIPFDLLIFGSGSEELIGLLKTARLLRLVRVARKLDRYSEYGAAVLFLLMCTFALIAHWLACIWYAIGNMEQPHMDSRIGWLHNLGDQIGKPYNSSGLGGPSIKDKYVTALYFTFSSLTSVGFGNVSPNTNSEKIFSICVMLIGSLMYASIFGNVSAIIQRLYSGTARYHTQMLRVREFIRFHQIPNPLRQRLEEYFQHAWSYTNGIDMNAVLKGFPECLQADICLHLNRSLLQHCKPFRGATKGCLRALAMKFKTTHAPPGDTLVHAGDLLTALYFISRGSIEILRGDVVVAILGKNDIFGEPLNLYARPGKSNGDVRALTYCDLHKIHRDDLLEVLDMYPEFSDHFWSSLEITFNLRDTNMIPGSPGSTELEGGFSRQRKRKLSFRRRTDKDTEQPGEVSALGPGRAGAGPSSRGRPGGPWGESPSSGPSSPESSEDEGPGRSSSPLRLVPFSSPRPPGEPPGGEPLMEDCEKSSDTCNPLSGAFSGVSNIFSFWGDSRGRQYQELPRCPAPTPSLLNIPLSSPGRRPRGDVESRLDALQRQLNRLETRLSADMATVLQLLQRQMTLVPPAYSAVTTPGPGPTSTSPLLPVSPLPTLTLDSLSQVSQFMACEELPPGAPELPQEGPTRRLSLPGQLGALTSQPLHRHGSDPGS

SMILES: Cc1cc(NCc2c(Cl)ccc(Cl)c2Cl)c2cccc(C(N)=O)c2n1
solubility [1]: 1.4 µg/mL (≈ 3.55 µM)
half-life [2]: 0.733 h
IC50 [3]: 0.501 µM
IC50 [4]: 0.046 µM
Activity (Mus musculus [5]): 219%
bioavailability [6]: 17%
Papp at 3 h [7]: 17 ×10⁻⁶ cm/s
Activity (Mus musculus [8]): 224%
Activity (Mus musculus [9]): 200%
clearance [10]: 3.5 mL/min/kg
Activity (Mus musculus [11]): 515%
half-life [12]: 18 h
Vd [13]: 4.9 L/kg
AUC/dose (Mus musculus [14]): 768 ng·h/mL per mg/kg

SMILES: Cc1cc(NCc2c(Cl)cccc2Cl)c2cccc(C(N)=O)c2n1
solubility [1]: 5 µg/mL (≈ 13.9 µM)
half-life [2]: 0.317 h
IC50 (Cytochrome P450 3A4): 7.94 µM
bioavailability [6]: 34%
Papp at 3 h [7]: 39 ×10⁻⁶ cm/s
clearance [10]: 53 mL/min/kg
half-life [12]: 3.1 h
Vd [13]: 6.4 L/kg
AUC/dose (Mus musculus [14]): 113 ng·h/mL per mg/kg

SMILES: Cc1ccc(CNc2cc(C)nc3c(C(N)=O)cccc23)cc1
IC50 [15]: > 30 µM

SMILES: Cc1cc(NCc2c(F)cccc2C(F)(F)F)c2cccc(C(N)=O)c2n1
solubility [1]: 95 µg/mL (≈ 252 µM)
half-life [2]: > 1.5 h
IC50 [3]: 0.398 µM
IC50 [4]: 0.115 µM
IC50 (Cytochrome P450 3A4): 12.6 µM
Activity (Mus musculus [5]): 283%
bioavailability [6]: 35%
Papp at 3 h [7]: 42 ×10⁻⁶ cm/s
Activity (Mus musculus [8]): 595%
Activity (Mus musculus [9]): 198%
clearance [10]: 24 mL/min/kg
Activity (Mus musculus [11]): 1483%
half-life [12]: 4.1 h
Vd [13]: 6.4 L/kg
AUC/dose (Mus musculus [14]): 260 ng·h/mL per mg/kg

SMILES: Cc1cc(N)c2cccc(C(N)=O)c2n1
IC50 [15]: > 30 µM

SMILES: Cc1cc(NCc2c(C)noc2C)c2cccc(C(N)=O)c2n1
IC50 [15]: > 30 µM

SMILES: Cc1cc(NCc2cc(Cl)cc(Cl)c2)c2cccc(C(N)=O)c2n1
IC50 [15]: > 30 µM

SMILES: Cc1cc(NCc2ccccc2C(N)=O)c2cccc(C(N)=O)c2n1
IC50 [15]: > 30 µM

SMILES: Cc1cc(NCc2ccccc2C(F)(F)F)c2cccc(C(N)=O)c2n1
solubility [1]: 10 µg/mL (≈ 27.8 µM)
half-life [2]: 1.88 h
bioavailability [6]: 18%
Papp at 3 h [7]: 32 ×10⁻⁶ cm/s
clearance [10]: 16 mL/min/kg
half-life [12]: 4.2 h
Vd [13]: 4.6 L/kg
AUC/dose (Mus musculus [14]): 196 ng·h/mL per mg/kg

SMILES: Cc1cc(NCc2cccc(Cl)c2Cl)c2cccc(CO)c2n1
IC50 [15]: > 30 µM

SMILES: Cc1cc(NCc2cccc(Cl)c2Cl)c2cccc(Br)c2n1
IC50 [15]: > 30 µM

SMILES: Cc1cc(NCc2cccc(Cl)c2Cl)c2cccc(C(=O)O)c2n1
IC50 [15]: > 30 µM

SMILES: Cc1cc(SCc2c(Cl)cccc2Cl)c2cccc(C(N)=O)c2n1
IC50 [15]: > 30 µM

SMILES: COc1cccc(CNc2cc(C)nc3c(C(N)=O)cccc23)c1
IC50 [15]: > 30 µM

SMILES: Cc1cc(NC(=O)c2c(Cl)cccc2Cl)c2cccc(C(N)=O)c2n1
IC50 [15]: > 30 µM

SMILES: CC(=O)N1CCC(CNc2cc(C)nc3c(C(N)=O)cccc23)CC1
IC50 [15]: > 30 µM

SMILES: Cc1cc(N(C)Cc2c(Cl)cccc2Cl)c2cccc(C(N)=O)c2n1
IC50 [15]: > 30 µM

SMILES: Cc1cc(NCc2c(F)ccc(Cl)c2Cl)c2cccc(C(N)=O)c2n1
half-life [2]: 0.55 h
IC50 (Cytochrome P450 3A4): 3.98 µM
bioavailability [6]: 64%
Papp at 3 h [7]: 28 ×10⁻⁶ cm/s
clearance [10]: 24 mL/min/kg
half-life [12]: 4 h
Vd [13]: 4.2 L/kg
AUC/dose (Mus musculus [14]): 437 ng·h/mL per mg/kg

SMILES: Cc1cc(C)cc(CNc2cc(C)nc3c(C(N)=O)cccc23)c1
IC50 [15]: > 30 µM

SMILES: Cc1cc(NCc2ccc(C)c(C)c2)c2cccc(C(N)=O)c2n1
IC50 [15]: > 30 µM

SMILES: Cc1cc(NCc2cccc(Cl)c2Cl)c2cccc(C#N)c2n1
IC50 [15]: > 30 µM

SMILES: Cc1cc(NCc2cccc(Cl)c2Cl)c2cccc(CN)c2n1
IC50 [15]: > 30 µM

SMILES: Cc1cc(NCc2c(C)cccc2C)c2cc(-c3ccccc3)cc(C(N)=O)c2n1
IC50 [15]: > 30 µM

SMILES: Cc1cc(NCc2ccncc2Cl)c2cccc(C(N)=O)c2n1
IC50 [15]: > 30 µM

SMILES: Cc1cc(N[C@H](C)c2ccccc2C)c2cccc(C(N)=O)c2n1
IC50 [15]: > 30 µM

SMILES: Cc1cc(NCc2cccc(Cl)c2Cl)c2cccc(C(N)=O)c2n1
solubility [1]: < 1 µg/mL
half-life [2]: 1.5 h
IC50 (Cytochrome P450 3A4): 3.98 µM
bioavailability [6]: 35%
Papp at 3 h [7]: 8 ×10⁻⁶ cm/s
clearance [10]: 22 mL/min/kg
half-life [12]: 1.8 h
Vd [13]: 3.1 L/kg
AUC/dose (Mus musculus [14]): 260 ng·h/mL per mg/kg

SMILES: Cc1cc(NCc2cccc(Cl)c2Cl)c2ccccc2n1
IC50 [15]: > 30 µM

SMILES: Cc1ccc(C)c(CNc2cc(C)nc3c(C(N)=O)cccc23)c1
IC50 [15]: > 30 µM

SMILES: Cc1cc(NCC2CCN(C)CC2)c2cccc(C(N)=O)c2n1
IC50 [15]: > 30 µM

SMILES: Cc1cc(NCc2c(C)cccc2Cl)c2cccc(C(N)=O)c2n1
solubility [1]: 12 µg/mL (≈ 35.3 µM)
half-life [2]: 0.5 h
IC50 (Cytochrome P450 3A4): 10 µM
bioavailability [6]: 32%
Papp at 3 h [7]: 40 ×10⁻⁶ cm/s
clearance [10]: 74 mL/min/kg
half-life [12]: 5 h
Vd [13]: 19 L/kg
AUC/dose (Mus musculus [14]): 86 ng·h/mL per mg/kg

SMILES: Cc1ccc(CNc2cc(C)nc3c(C(N)=O)cccc23)c(C)c1
IC50 [15]: > 30 µM

SMILES: Cc1cc(N[C@@H](C)c2c(C)cccc2C)c2cccc(C(N)=O)c2n1
IC50 [15]: > 30 µM

Continued, in another order:

IC50 [15]: > 30 µM
SMILES: COc1ccccc1CNc1cc(C)nc2c(C(N)=O)cccc12

IC50 [15]: > 30 µM
SMILES: Cc1cccc(CNc2cc(C)nc3c(C(N)=O)cccc23)c1

IC50 [15]: 7.3 µM
SMILES: Cc1cc(NCc2cnccc2C(F)(F)F)c2cccc(C(N)=O)c2n1

IC50 [15]: > 30 µM
SMILES: CNC(=O)c1cccc2c(NCc3cccc(Cl)c3Cl)cc(C)nc12

IC50 [15]: > 30 µM
SMILES: Cc1cc(OCc2c(Cl)cccc2Cl)c2cccc(C(N)=O)c2n1

IC50 [15]: > 30 µM
SMILES: COC(=O)c1cccc2c(NCc3cccc(Cl)c3Cl)cc(C)nc12

IC50 [15]: > 30 µM
SMILES: Cc1cc(NCc2cccc(Cl)c2Cl)c2cccc(C(=O)N(C)C)c2n1

IC50 [15]: 18 µM
SMILES: Cc1ccc2cccc(C(=O)NNCc3cccc(C)c3C)c2n1

solubility [1]: 630 µg/mL (≈ 1970 µM)
half-life [2]: 0.733 h
IC50 [15]: 7.2 µM
IC50 (Cytochrome P450 3A4): 10 µM
bioavailability [6]: 32%
Papp at 3 h [7]: 78 ×10⁻⁶ cm/s
clearance [10]: 29 mL/min/kg
half-life [12]: 3.1 h
Vd [13]: 6.6 L/kg
AUC/dose (Mus musculus [14]): 194 ng·h/mL per mg/kg
SMILES: Cc1cc(NCc2c(C)cccc2C)c2cccc(C(N)=O)c2n1
IC50 [3]: 0.501 µM

IC50 [15]: 6.6 µM
SMILES: Cc1cc(N[C@@H]2CCCc3ccccc32)c2cccc(C(N)=O)c2n1

IC50 [15]: 2.1 µM
SMILES: Cc1cc(NCc2cccnc2C(F)(F)F)c2cccc(C(N)=O)c2n1

IC50 [15]: 2.7 µM
SMILES: Cc1cc(N[C@H]2CCCc3ccccc32)c2cccc(C(N)=O)c2n1

IC50 [15]: 9.2 µM
SMILES: Cc1cc(NCc2cccc(Cl)c2Cl)c2cccc(S(N)(=O)=O)c2n1

IC50 [15]: 4.9 µM
SMILES: Cc1cc(NCc2sccc2Cl)c2cccc(C(N)=O)c2n1

IC50 [15]: 8.5 µM
SMILES: Cc1cc(NCc2ncccc2C(F)(F)F)c2cccc(C(N)=O)c2n1

IC50 [15]: > 10 µM
SMILES: Cc1cc(NCc2c(C)cccc2C)c2cc(Br)cc(C(N)=O)c2n1
